Assay results: US11155586B2, “Cystine knot scaffold platform” (Genentech, Inc., priority 2015, dated 2021)
Positions of bridges follow the written chain, without caps; N, C: chain ends. Residues, ends and D or L forms follow the SMILES beside them.

Experiments:
hVEGF(8-109) = target: T1, hVEGF(8-109) (Homo sapiens, UniProt P15692); test: Spot phage ELISA; format: binding
T1 construct: hVEGF(8-109) or BSA were coated on 384-well MAXISORP™ immunoplates
T1 sequence (P15692 214-315): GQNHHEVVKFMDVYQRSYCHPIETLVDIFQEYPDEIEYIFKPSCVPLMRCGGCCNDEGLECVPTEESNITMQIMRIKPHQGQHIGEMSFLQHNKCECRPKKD
Summary of the method: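 After four selection rounds, phage supernatants from single clones (1:3 in PBT) were added to wells coated with hVEGF(8-109) or BSA; binding detected with anti-M13-HRP and TMB. Positive clones had target signal more than 3 times BSA background.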

[1] = target: hVEGF-A mutants (Y21A, K48A, Q89A, F17A/M81A); test: SPR binding assay, hVEGF-A mutants; set-up: species or system human; kd: unit not given here
Procedure: (§1) Depending on the format of the assay either a streptavidin sensor (SA) or a dextran-coated (CM5) sensor was utilized as described below.
(§2) For use with the SA sensor, VEGF-A was first biotinylated (no more than 2 biotin/VEGF-A) by incubating the protein with EZ-link NHS-PEG4-Biotin (Pierce) in a 1:1.5 molar ratio respectively, in PBS for 2 hours on ice. Reaction was then quenched by addition of 10 molar excess of Glycine pH 8.0 and the sample was buffer exchanged into PBS using an Amicon 0.5 mL 3000 MWCO ultra-centrifugal filters (EMD Millipore). The biotinylation state of the protein was verified by LC-MS analysis. Biotinylated VEGF-A was then captured on the surface until a resonance unit (RU) signal of about ˜400. For immobilization of VEGF-A on CM5 sensor, the surface was first activated with a mixture of N-ethyl-N′-(3-dimethylaminopropyl)carbodiimide hydrochloride and N-hydroxysuccinimide (EDC/NHS) according to the supplier instructions. VEGF-A was then diluted into coupling buffer (0.1 M Acetate Buffer, pH 5.0) and injected until the signal reached about ˜400 RU followed by a wash with 1 M ethanolamine pH 8.0 to quench remaining activated sites.
(§3) Following the capture step, a series of the peptide concentrations were prepared in HBS-EP buffer with matching DMSO concentrations to 0.1% and injected at a flow rate of […]. The resulting sensorgrams were then analyzed using a 1:1 binding model to obtain kinetic data and affinities using Scrubber 2.0 (BioLogic Software).
The binding interface of VEGF_CKP9.54.90 on VEGF-A overlaps with that of the natural receptors and G6.31 antibody (FIGS. 7 and 8). […] However, K48A mutation enhanced the binding of VEGF_CKP9.54.90 by ˜2-3 fold, a behavior that is similar to that observed with the G6.31 antibody (Fuh et al. (2006) J. Biol. Chem. 281, 6625-6631).

trypsin [2] = test: Resistance to trypsin digestion; format: in vitro ADME; conditions: FIG. 4
Procedure: Approximately 20% of VEGF_CKP9.54.90 was cleaved at Arg13 within loop 2 after 24 h incubation with trypsin at 37° C.

trypsin [3] = test: Trypsin protease activity, peptide substrate cleavage assay; format: biochemical; conditions: FIG. 3
rat VEGF-A = target: T2, rat VEGF-A (Rattus norvegicus, UniProt P16612); test: SPR binding assay; conditions: for ka / kd: rat, Table 30
T2 sequence (P16612 27-139 limits assumed): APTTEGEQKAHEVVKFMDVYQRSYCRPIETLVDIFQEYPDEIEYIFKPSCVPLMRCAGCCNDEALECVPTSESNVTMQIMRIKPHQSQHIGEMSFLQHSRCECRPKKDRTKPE
Procedure: as §1, §2, §3

VEGF human 165 = target: T3, VEGF human 165 (Homo sapiens, UniProt P15692); test: SPR binding assay; conditions: for ka / kd: human 165, Table 30
T3 sequence (P15692 27-191 isoform P15692-4): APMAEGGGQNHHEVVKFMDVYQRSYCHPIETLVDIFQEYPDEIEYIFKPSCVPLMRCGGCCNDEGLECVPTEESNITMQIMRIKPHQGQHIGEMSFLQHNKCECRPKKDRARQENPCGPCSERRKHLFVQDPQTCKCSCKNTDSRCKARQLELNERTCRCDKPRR
Procedure: as §1, §2, §3

rabbit VEGF-A = target: T4, rabbit VEGF-A (Oryctolagus cuniculus, UniProt G1T1L9); test: SPR binding assay; conditions: for ka / kd: rabbit, Table 30
T4 sequence (G1T1L9 1-398): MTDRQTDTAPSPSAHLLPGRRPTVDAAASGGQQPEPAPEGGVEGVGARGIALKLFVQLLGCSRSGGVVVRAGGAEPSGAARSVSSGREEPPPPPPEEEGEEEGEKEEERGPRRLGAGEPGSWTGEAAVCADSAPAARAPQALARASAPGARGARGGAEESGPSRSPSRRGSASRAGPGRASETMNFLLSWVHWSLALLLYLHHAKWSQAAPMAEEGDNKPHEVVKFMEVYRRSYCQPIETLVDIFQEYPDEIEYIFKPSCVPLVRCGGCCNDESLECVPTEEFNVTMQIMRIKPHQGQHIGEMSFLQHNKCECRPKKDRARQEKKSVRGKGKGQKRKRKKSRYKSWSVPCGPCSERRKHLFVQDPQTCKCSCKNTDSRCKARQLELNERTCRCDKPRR
Procedure: as §1, §2, §3

VEGF mouse 164 = target: T5, VEGF mouse 164 (Mus musculus, UniProt Q00731); test: SPR binding assay; conditions: for ka / kd: mouse 164, Table 30
T5 sequence (Q00731 27-190 isoform Q00731-2): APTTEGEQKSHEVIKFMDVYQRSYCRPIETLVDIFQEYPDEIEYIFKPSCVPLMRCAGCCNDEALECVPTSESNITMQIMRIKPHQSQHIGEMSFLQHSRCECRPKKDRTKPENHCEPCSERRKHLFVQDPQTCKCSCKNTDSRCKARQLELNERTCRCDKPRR
Procedure: as §1, §2, §3

hVEGF-A (8-109) = target: T6, hVEGF-A (8-109) (Homo sapiens, UniProt P15692); test: Phage competition ELISA; format: binding
T6 sequence (P15692 214-315): T1 sequence (P15692 214-315)

[4] = VEGF_CKP9 Loop1/Loop5 affinity-matured variants, Table 24

| SMILES | Kd ([1]; hVEGF-A mutant K48A) | ka ([1]; hVEGF-A mutant K48A) | kd ([1]; hVEGF-A mutant K48A) | Kd ([1]; hVEGF-A mutant Q89A) | ka ([1]; hVEGF-A mutant Q89A) | kd ([1]; hVEGF-A mutant Q89A) | Kd ([1]; hVEGF-A mutant Y21A) | ka ([1]; hVEGF-A mutant Y21A) | kd ([1]; hVEGF-A mutant Y21A) | inhibition of trypsin protease activity (trypsin [3]) | ka (rat VEGF-A) | kd (rat VEGF-A) | ka (VEGF human 165) | kd (VEGF human 165) | ka (rabbit VEGF-A) | kd (rabbit VEGF-A) | ka (VEGF mouse 164) | kd (VEGF mouse 164) | S/N (signal to noise ratio as compared to BSA control) (hVEGF(8-109); Table 24) | ELISA (hVEGF(8-109); [4]) | other results |
| --- | --- | --- | --- | --- | --- | --- | --- | --- | --- | --- | --- | --- | --- | --- | --- | --- | --- | --- | --- | --- | --- |
| CC[C@H](C)[C@@H]1NC(=O)[C@H](CC(=O)O)NC(=O)[C@@H]2CCCN2C(=O)CNC(=O)[C@@H]2CSSC[C@H](NC(=O)[C@H](CC(=O)O)NC1=O)C(=O)N[C@@H](CC(C)C)C(=O)N[C@@H](C)C(=O)NCC(=O)N[C@H](C(=O)N[C@H](C(=O)N[C@H]1CSSC[C@@H](C(=O)NCC(=O)O)NC(=O)[C@H](CO)NC(=O)[C@H](CC(N)=O)NC(=O)[C@H](Cc3ccc(O)cc3)NC(=O)[C@H](Cc3c[nH]c4ccccc34)NC(=O)[C@H](Cc3c[nH]cn3)NC1=O)C(C)C)CSSC[C@H](NC(=O)CN)C(=O)N[C@@H](CC(=O)O)C(=O)N[C@@H](C(C)C)C(=O)N[C@@H](CCSC)C(=O)N[C@@H](CCC(N)=O)C(=O)N1CCC[C@H]1C(=O)N[C@@H](Cc1ccc(O)cc1)C(=O)N[C@@H](Cc1c[nH]c3ccccc13)C(=O)NCC(=O)N2 [VEGF_CKP9.63.12] (H-GCDVMQPYWGCGPDIDCLAGCVCHWYNSCG-OH; disulfide 2-21, 11-17, 23-29 (inferred); N-terminus and C-terminus assumed) | 0.00033 µM | 5.30 × 10^7 | 0.017 | 0.0365 µM | 7.43 × 10^6 | 0.47 | 0.00984 µM | 1.99 × 10^7 | 1.48 × 10^−1 | do not inhibit | 6.44 × 10^6 | 2.59 × 10^−2 | 4.65 × 10^6 | 2.01 × 10^−2 | 6.91 × 10^6 | 1.78 × 10^−2 | 1.04 × 10^6 | 1.32 × 10^−2 | – | – | S/N (signal to noise ratio as compared to BSA control) (hVEGF(8-109); Table 27): 39.9; ELISA (hVEGF(8-109); loop 2 variants based on VEGF_CKP9.63 framework, Table 27): 2.6; resistance to trypsin digestion (trypsin [2]): maintain a degree of resistance |
| CC[C@H](C)[C@@H]1NC(=O)[C@H](CC(N)=O)NC(=O)[C@@H](NC(=O)CN)CSSC[C@@H](C(=O)N[C@H](C(=O)N[C@H]2CSSC[C@@H](C(=O)NCC(=O)O)NC(=O)[C@H](CO)NC(=O)[C@H](CCC(N)=O)NC(=O)[C@H](Cc3ccc(O)cc3)NC(=O)[C@H](Cc3ccc(O)cc3)NC(=O)[C@H](CCC(N)=O)NC2=O)C(C)C)NC(=O)CNC(=O)[C@H](C)NC(=O)[C@H](CC(C)C)NC(=O)[C@@H]2CSSC[C@H](NC(=O)CNC(=O)[C@H](Cc3c[nH]c4ccccc34)NC(=O)[C@H](Cc3ccccc3)NC(=O)[C@@H]3CCCN3C(=O)[C@H](CC(C)C)NC(=O)[C@H](CCSC)NC1=O)C(=O)N[C@@H](CCCCN)C(=O)N[C@@H](CCC(N)=O)C(=O)N[C@@H](CC(=O)O)C(=O)N[C@@H](CO)C(=O)N[C@@H](CC(=O)O)C(=O)N2 [VEGF_CKP9.54] (H-GCNIMLPFWGCKQDSDCLAGCVCQYYQSCG-OH; disulfide 2-21, 11-17, 23-29 (inferred); N-terminus and C-terminus assumed) | 0.022 µM | 2.64 × 10^6 | 0.0587 | 1.88 µM | 3.37 × 10^5 | 0.7932 | 0.317 µM | 6.63 × 10^5 | 0.2101 | do not inhibit | 1.93 × 10^6 | 2.96 × 10^−1 | 8.23 × 10^5 | 1.49 × 10^−1 | 2.10 × 10^6 | 2.74 × 10^−1 | 8.26 × 10^5 | 2.07 × 10^−1 | 28.4 | 2.1 | IC50 (hVEGF-A (8-109)): 0.45 µM; Kd (rat VEGF-A): 0.176 µM; Kd (VEGF human 165): 0.19 µM; Kd (rabbit VEGF-A): 0.133 µM; Kd (VEGF mouse 164): 0.25 µM |
| CSCC[C@@H]1NC(=O)[C@H](C(C)C)NC(=O)[C@H](CC(=O)O)NC(=O)[C@@H](NC(=O)CN)CSSC[C@@H](C(=O)N[C@H](C(=O)N[C@H]2CSSC[C@@H](C(=O)NCC(=O)O)NC(=O)[C@H](CO)NC(=O)[C@H](CC(N)=O)NC(=O)[C@H](Cc3ccc(O)cc3)NC(=O)[C@H](Cc3c[nH]c4ccccc34)NC(=O)[C@H](Cc3c[nH]cn3)NC2=O)C(C)C)NC(=O)CNC(=O)[C@H](C)NC(=O)[C@H](CC(C)C)NC(=O)[C@@H]2CSSC[C@H](NC(=O)CNC(=O)[C@H](Cc3c[nH]c4ccccc34)NC(=O)[C@H](Cc3ccc(O)cc3)NC(=O)[C@@H]3CCCN3C(=O)[C@H](CCC(N)=O)NC1=O)C(=O)N[C@@H](CCCCN)C(=O)N[C@@H](CCC(N)=O)C(=O)N[C@@H](CC(=O)O)C(=O)N[C@@H](CO)C(=O)N[C@@H](CC(=O)O)C(=O)N2 [VEGF_CKP9.63] (H-GCDVMQPYWGCKQDSDCLAGCVCHWYNSCG-OH; disulfide 2-21, 11-17, 23-29 (inferred); N-terminus and C-terminus assumed) | 0.0284 µM | 5.72 × 10^5 | 0.02 | 2 µM | 2.66 × 10^5 | 0.51 | 0.585 µM | 7.52 × 10^5 | 0.4814 | – | 4.56 × 10^5 | 2.46 × 10^−1 | 3.40 × 10^5 | 1.30 × 10^−1 | 4.24 × 10^5 | 1.30 × 10^−1 | 5.57 × 10^5 | 1.60 × 10^−1 | 29.7 | 2.0 | IC50 (hVEGF-A (8-109)): 0.146 µM; Kd (rat VEGF-A): 0.524 µM; Kd (VEGF human 165): 0.382 µM; Kd (rabbit VEGF-A): 0.311 µM; Kd (VEGF mouse 164): 0.289 µM |
